For the assay, the target named is T1, human β-Secretase (Homo sapiens, UniProt P56817).
T1 construct: The soluble part of the human β-Secretase (AA 1-AA 460) was cloned; Fc domain of IgG1 (C); made in house
Kind of assay: TR-FRET Assay. In kind it is biochemical. On the procedure:
The enzyme used in the IGEN Cleavage-, Fluorescent-, TR-FRET- and the BiaCore assay is described as follows:
The soluble part of the human β-Secretase (AA 1-AA 460) was cloned into the ASP2-Fc10-1-IRES-GFP-neoK mammalian expression vector. The gene was fused to the Fc domain of IgG1 (affinity tag) and stably cloned into HEK 293 cells. Purified sBACE-Fc is stored in Tris buffer, pH 9.2 and has a purity of 95%.
Dilute the enzyme (truncated form) to 6 μg/mL (stock 1.3 mg/mL) and the substrate (Europium)CEVNLDAEFK(Qsy7) to 200 nM (stock 60 μM) in reaction buffer (NaAcetate, chaps, triton x-100, EDTA pH4.5). The Biomek FX is used for all liquid handling and the enzyme and substrate solutions are kept on ice until they are placed in Biomek FX. Enzyme (9 μl) is added to the plate then 1 μl of compound in dimethylsulphoxide is added, mixed and pre-incubated for 10 minutes. Substrate (10 μl) is then added, mixed and the reaction proceeds in the dark for 15 minutes at room temperature. The reaction is stopped with the addition of Stop solution ([…] pH 9). The fluorescence of the product is measured on a Victor II plate reader with an excitation wavelength of 340 nm and an emission wavelength of 615 nm. The assay is done in a Costar 384 well round bottom, low volume, non-binding surface (Corning #3676). The final concentration of the enzyme is 0.3 nM; the final concentration of substrate is 100 nM (Km of ˜250 nM). The dimethylsulphoxide control defines the 100% activity level and 0% activity is defined by only addition of the peptide substrate.
In general terms: TR-FRET usually uses a lanthanide donor and a delayed reading to cut background.

The values that follow come from patent publication US20100298340A1, “Thiazol-Guanidine Derivatives Useful As A (Beta)-Related Pathologies” (AstraZeneca AB, priority 2006, published 2010).

pIC50: −log10 of the molar value.

T1 sequence (P56817 22-460): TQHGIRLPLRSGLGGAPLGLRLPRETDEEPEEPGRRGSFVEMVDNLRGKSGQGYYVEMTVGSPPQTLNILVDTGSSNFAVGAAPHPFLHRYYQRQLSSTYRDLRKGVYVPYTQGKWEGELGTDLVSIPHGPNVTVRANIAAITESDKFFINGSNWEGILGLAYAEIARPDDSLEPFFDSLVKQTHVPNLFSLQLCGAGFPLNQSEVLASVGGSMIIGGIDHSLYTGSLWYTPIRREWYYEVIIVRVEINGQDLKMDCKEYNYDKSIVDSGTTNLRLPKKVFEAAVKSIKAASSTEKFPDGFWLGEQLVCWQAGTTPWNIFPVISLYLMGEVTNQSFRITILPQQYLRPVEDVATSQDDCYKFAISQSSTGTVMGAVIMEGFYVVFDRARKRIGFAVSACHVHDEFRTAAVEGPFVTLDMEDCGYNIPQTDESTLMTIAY

Regarding `Cc1nc(NC(=N)N)sc1-c1cccc(NC(=O)c2ccc(-c3csnn3)cc2)c1` [Example 17, N-[3-(2-{[Amino(imino)methyl]amino}-4-methyl-1,3-thiazol-5-yl)phenyl]-4-(1,2,3-thiadiazol-4-yl)benzamide], the pIC50 (commonly the IC50 on a negative log10 scale, so that one unit is a factor of ten) was 5.35.

For the compound `CCc1ccc2c(Cl)c(C(=O)Nc3cccc(-c4sc(NC(=N)N)nc4C)c3)sc2c1` [Example 18, N-[3-(2-{[Amino(imino)methyl]amino}-4-methyl-1,3-thiazol-5-yl)phenyl]-3-chloro-6-ethyl-1-benzothiophene-2-carboxamide], the negative-log IC50 (pIC50) is 5.22.

`CCc1nc(NC(=N)N)sc1-c1ccc(NCC2CCN(C(=O)OCc3ccccc3)CC2)cc1` [Example 20, Benzyl 4-({[4-(2-{[amino(imino)methyl]amino}-4-ethyl-1,3-thiazol-5-yl)phenyl]amino}methyl)piperidine-1-carboxylate] gave a pIC50 of 5.30.
